Experiment: mn = molality of the nth substance listed, in mol/kg
Conditions: Liquid, Vibrating tube method

[Cl-].[Na+] [sodium chloride] + O
mass density [kg/m3]
Conditions | 298.12 K | 323.07 K | 348.04 K | 372.99 K | 397.97 K | 422.94 K | 447.94 K | 472.96 K
900 kPa, m1 = 1.06 | 1038.78 | 1028.45 | 1014.93 | 998.89 | 980.42 | 959.71 | 936.49 | –
900 kPa, m1 = 3.16 | 1111.08 | 1098.8 | 1084.57 | 1068.6 | 1051.16 | 1031.93 | 1010.87 | –
900 kPa, m1 = 6 | 1194.53 | 1180.58 | 1165.53 | 1149.58 | 1132.48 | 1114.2 | 1094.62 | –
9900 kPa, m1 = 1.06 | 1042.49 | 1032.1 | 1018.61 | 1002.77 | 984.6 | 964.31 | 941.64 | 916.86
9900 kPa, m1 = 3.16 | 1114.33 | 1102.1 | 1087.94 | 1072.14 | 1054.84 | 1036.08 | 1015.28 | 993.19
9900 kPa, m1 = 6 | 1197.36 | 1183.46 | 1168.53 | 1152.7 | 1135.74 | 1117.84 | 1098.38 | 1078.2
19900 kPa, m1 = 1.06 | 1046.61 | 1036.09 | 1022.67 | 1007 | 989.13 | 969.29 | 947.14 | 923.12
19900 kPa, m1 = 3.16 | 1117.89 | 1105.63 | 1091.54 | 1075.95 | 1058.92 | – | – | 998.47
19900 kPa, m1 = 6 | 1200.44 | 1186.57 | 1171.76 | 1156.09 | 1139.35 | 1121.56 | 1102.62 | 1082.67
29900 kPa, m1 = 1.06 | 1050.58 | – | 1026.61 | 1011.16 | 993.51 | 974.04 | 952.41 | 929
29900 kPa, m1 = 3.16 | 1121.4 | 1109.07 | 1095.09 | 1079.61 | 1062.79 | 1044.51 | 1024.61 | 1003.47
29900 kPa, m1 = 6 | 1203.47 | 1189.69 | 1174.98 | 1159.48 | 1142.8 | 1125.33 | 1106.53 | 1087.01
39900 kPa, m1 = 1.06 | 1054.45 | 1043.77 | 1030.49 | 1015.15 | 997.76 | 978.6 | 957.55 | 934.76
39900 kPa, m1 = 3.16 | 1124.91 | 1112.54 | 1098.65 | 1083.24 | 1066.63 | 1048.68 | 1029.15 | 1008.45
39900 kPa, m1 = 6 | 1206.51 | 1192.73 | 1178.07 | 1162.74 | 1146.27 | 1128.98 | 1110.46 | 1091.28
49900 kPa, m1 = 1.06 | 1058.27 | 1047.49 | 1034.25 | 1019.09 | 1002.02 | 983.2 | 962.42 | 940.22
49900 kPa, m1 = 3.16 | 1128.21 | 1115.9 | 1101.95 | 1086.77 | 1070.44 | 1052.68 | – | 1013.17
49900 kPa, m1 = 6 | 1209.49 | 1195.77 | 1181.15 | 1165.95 | 1149.66 | 1132.56 | 1114.27 | 1095.39
59900 kPa, m1 = 1.06 | 1061.93 | 1051.1 | 1037.94 | 1022.88 | 1006.01 | 987.46 | 967.35 | 945.52
59900 kPa, m1 = 3.16 | 1131.46 | 1119.2 | 1105.34 | 1090.25 | 1074.07 | 1056.58 | 1037.71 | 1017.78
59900 kPa, m1 = 6 | 1212.31 | 1198.7 | 1184.21 | 1169 | 1152.86 | 1136.03 | 1118.04 | 1099.39
68400 kPa, m1 = 1.06 | 1065.11 | 1054.12 | 1041.08 | 1026.09 | 1009.32 | 991.15 | 971.22 | 949.91
68400 kPa, m1 = 3.16 | 1134.29 | 1121.87 | 1108.22 | 1093.16 | 1077.08 | 1059.82 | 1041.14 | 1021.53
68400 kPa, m1 = 6 | 1214.78 | 1201.09 | 1186.78 | 1171.6 | 1155.61 | 1138.92 | 1121.1 | 1102.68
